Sequences and labels used below:
T1: Gi-coupled receptor APJ (HEK cells stably expressing the APJ receptor) (Homo sapiens, UniProt P35414)
T1 construct: expressed in transfected cells; host or cells: HEK cells stably expressing APJ
T1 sequence (P35414 1-380): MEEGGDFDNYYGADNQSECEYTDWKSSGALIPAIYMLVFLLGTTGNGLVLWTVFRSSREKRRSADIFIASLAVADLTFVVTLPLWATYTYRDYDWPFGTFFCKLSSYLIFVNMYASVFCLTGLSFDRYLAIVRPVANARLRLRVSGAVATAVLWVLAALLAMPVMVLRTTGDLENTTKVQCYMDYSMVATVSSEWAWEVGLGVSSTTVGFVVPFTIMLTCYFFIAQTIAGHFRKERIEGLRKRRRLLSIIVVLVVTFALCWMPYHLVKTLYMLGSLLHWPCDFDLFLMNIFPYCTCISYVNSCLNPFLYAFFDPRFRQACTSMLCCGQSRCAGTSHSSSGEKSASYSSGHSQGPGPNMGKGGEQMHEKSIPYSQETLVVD

B1: Compound 11 Pal-FRSSREKRRSADIFI-Amide (peptide)
peptide: Palmitoyl-FRSSREKRRSADIFI-NH2
SMILES: CCCCCCCCCCCCCCCC(=O)N[C@@H](Cc1ccccc1)C(=O)N[C@@H](CCCNC(=N)N)C(=O)N[C@@H](CO)C(=O)N[C@@H](CO)C(=O)N[C@@H](CCCNC(=N)N)C(=O)N[C@@H](CCC(=O)O)C(=O)N[C@@H](CCCCN)C(=O)N[C@@H](CCCNC(=N)N)C(=O)N[C@@H](CCCNC(=N)N)C(=O)N[C@@H](CO)C(=O)N[C@@H](C)C(=O)N[C@@H](CC(=O)O)C(=O)N[C@H](C(=O)N[C@@H](Cc1ccccc1)C(=O)N[C@H](C(N)=O)[C@@H](C)CC)[C@@H](C)CC
B2: Compound 96 Pal-QTIAGHFRKERIEGLRKRRRLLA-Amide (peptide)
peptide: Palmitoyl-QTIAGHFRKERIEGLRKRRRLLA-NH2
SMILES: CCCCCCCCCCCCCCCC(=O)N[C@@H](CCC(N)=O)C(=O)N[C@H](C(=O)N[C@H](C(=O)N[C@@H](C)C(=O)NCC(=O)N[C@@H](Cc1c[nH]cn1)C(=O)N[C@@H](Cc1ccccc1)C(=O)N[C@@H](CCCNC(=N)N)C(=O)N[C@@H](CCCCN)C(=O)N[C@@H](CCC(=O)O)C(=O)N[C@@H](CCCNC(=N)N)C(=O)N[C@H](C(=O)N[C@@H](CCC(=O)O)C(=O)NCC(=O)N[C@@H](CC(C)C)C(=O)N[C@@H](CCCNC(=N)N)C(=O)N[C@@H](CCCCN)C(=O)N[C@@H](CCCNC(=N)N)C(=O)N[C@@H](CCCNC(=N)N)C(=O)N[C@@H](CCCNC(=N)N)C(=O)N[C@@H](CC(C)C)C(=O)N[C@@H](CC(C)C)C(=O)N[C@@H](C)C(N)=O)[C@@H](C)CC)[C@@H](C)CC)[C@@H](C)O
B3: Compound 12 Pal-TVFRSSREKRRSADIFI-Amide (peptide)
peptide: Palmitoyl-TVFRSSREKRRSADIFI-NH2
SMILES: CCCCCCCCCCCCCCCC(=O)N[C@H](C(=O)N[C@H](C(=O)N[C@@H](Cc1ccccc1)C(=O)N[C@@H](CCCNC(=N)N)C(=O)N[C@@H](CO)C(=O)N[C@@H](CO)C(=O)N[C@@H](CCCNC(=N)N)C(=O)N[C@@H](CCC(=O)O)C(=O)N[C@@H](CCCCN)C(=O)N[C@@H](CCCNC(=N)N)C(=O)N[C@@H](CCCNC(=N)N)C(=O)N[C@@H](CO)C(=O)N[C@@H](C)C(=O)N[C@@H](CC(=O)O)C(=O)N[C@H](C(=O)N[C@@H](Cc1ccccc1)C(=O)N[C@H](C(N)=O)[C@@H](C)CC)[C@@H](C)CC)C(C)C)[C@@H](C)O

Experimental findings from US20120028888A1, “APJ RECEPTOR COMPOUNDS” (priority 2008, published 2012) are described below.

Non-standard residues stand in square brackets, D forms with d. Residues, ends and D or L forms follow the SMILES beside them. ξ: configuration not given here. *: point of attachment. Palmitoyl = CCCCCCCCCCCCCCCC(=O)*; ξR = N=C(N)NCCCC(N)C(=O)O Bounds are passed on as bounds.

The target in one assay is APJ receptor (Homo sapiens (Human), UniProt P35414). In words: cell-based or functional assay.
Settings: not given
Turning to B1, the “EC50 value (nM), HTRF cAMP assay” value is ≤ 500 nM.
On the same count and under the same terms, then B2, with ≤ 500 nM; and B3, with ≤ 500 nM.

The next assay relates to mouse heart function. In words: Langendorff heart preparation, developed pressure. The assay is classed as ex vivo. As to conditions: isolated perfused mouse heart, 15 minutes. As for the experimental part:
A pressure-sensing balloon catheter was inserted in the LV cavity to record changes in the developed pressure. Heart function was assessed by measuring standard parameters such as heart rate, mean peak systolic pressure, mean end diastolic pressure, developed pressure, dP/dt max, and dP/dt min.
As to `CCCCCCCCCCCCCCCC(=O)N[C@H](C(=O)N[C@H](C(=O)N[C@@H](Cc1ccccc1)C(=O)N[C@@H](CCCNC(=N)N)C(=O)N[C@@H](CO)C(=O)N[C@@H](CO)C(=O)N[C@@H](CCCNC(=N)N)C(=O)N[C@@H](CCC(=O)O)C(=O)N[C@@H](CCCCN)C(=O)N[C@@H](CCCNC(=N)N)C(=O)N[C@@H](CCCNC(=N)N)C(=O)N[C@@H](CO)C(=O)N[C@@H](C)C(=O)N[C@@H](CC(=O)O)C(=O)N[C@H](C(=O)N[C@@H](Cc1ccccc1)C(=O)N[C@H](C(N)=O)[C@@H](C)CC)[C@@H](C)CC)C(C)C)[C@@H](C)O` [Compound 12] (Palmitoyl-TVFRSSREKRRSADIFI-NH2), the “effect on mouse heart function (developed pressure, inotropic effect)” value is reported as “demonstrates inotropic activity”.
As to apelin-13 [reference compound], the “effect on mouse heart function (developed pressure, inotropic effect)” value was “increase in developed pressure”.

Another assay concerns the target T1, Gi-coupled receptor APJ (HEK cells stably expressing the APJ receptor). In words: HTRF cAMP assay: inhibition of NKH477 stimulated increase in cAMP. The note with it: read-out: EC50 value (nM), SEM. The assay is classed as cell-based. The text has this:
HTRF (homogeneous time resolved fluorescence) is a technology developed by Cisbio Bioassays based on TR-FRET (time-resolved fluorescence resonance energy transfer). Cisbio Bioassays has developed a wide selection of HTRF-based assays compatible with whole cells, thereby enabling functional assays to run under more physiological conditions. The IP-One assays are competitive immunoassays using cryptate-labeled anti-IPI monoclonal antibody and d2-labeled IP1. IP1 is a relatively stable downstream metabolite of IP3, and accumulates in cells following Gq receptor activation.
cAMP kits based on a competitive immunoassay using cryptate-labeled anti-cAMP antibody and d2-labeled cAMP were used to assay the effects of APJ compounds of the present invention. This assay measures the increase in intracellular cAMP upon Gs-coupled receptor activation as well as decrease in forskolin (or a more soluble version of forskolin—NKH477) stimulated increase in cAMP upon Gi-coupled receptor activation.
(TR-FRET usually uses a lanthanide donor and a delayed reading to cut background.)
With `CCCCCCCCCCCCCCCC(=O)N[C@H](C(=O)N[C@H](C(=O)N[C@@H](Cc1ccccc1)C(=O)N[C@@H](CCCNC(=N)N)C(=O)N[C@@H](CO)C(=O)N[C@@H](CO)C(=O)N[C@@H](CCCNC(=N)N)C(=O)N[C@@H](CCC(=O)O)C(=O)N[C@@H](CCCCN)C(=O)N[C@@H](CCCNC(=N)N)C(=O)N[C@@H](CCCNC(=N)N)C(=O)N[C@@H](CO)C(=O)N[C@@H](C)C(=O)N[C@@H](CC(=O)O)C(=O)N[C@H](C(=O)N[C@@H](Cc1ccccc1)C(=O)N[C@H](C(N)=O)[C@@H](C)CC)[C@@H](C)CC)C(C)C)[C@@H](C)O` [Compound 12] (Palmitoyl-TVFRSSREKRRSADIFI-NH2), the EC50 lay within 1 to 500 nM.
In the case of `CCCCCCCCCCCCCCCC(=O)N[C@H](C(=O)N[C@@H](CCCNC(=N)N)C(=O)N1CCC[C@H]1C(=O)N[C@H](C(=O)N[C@@H](C)C(=O)N[C@@H](CC(N)=O)C(=O)N[C@@H](C)C(=O)N[C@@H](CCCNC(=N)N)C(=O)N[C@@H](CC(C)C)C(=O)N[C@@H](CCCNC(=N)N)C(=O)N[C@@H](CC(C)C)C(=O)N[C@@H](CCCNC(=N)N)C(N)=O)C(C)C)C(C)C` [Compound 83] (Palmitoyl-VRPVANARLRLR-NH2), the concentration giving a half-maximal response (EC50) was > 10000 nM.
Still for that read-out and setting: then `CCCCCCCCCCCCCCCC(=O)N[C@H](C(=O)N[C@@H](CCCNC(=N)N)C(=O)N1CCC[C@H]1C(=O)N[C@H](C(=O)N[C@@H](C)C(=O)N[C@@H](CC(N)=O)C(=O)N[C@@H](C)C(=O)N[C@@H](CCCNC(=N)N)C(=O)N[C@@H](CC(C)C)C(=O)NC(CCCNC(=N)N)C(=O)N[C@@H](CC(C)C)C(N)=O)C(C)C)C(C)C` (stereo partly drawn) [Compound 84] (Palmitoyl-VRPVANARL[ξR]L-NH2), with > 10000 nM; and `CCCCCCCCCCCCCCCC(=O)N[C@H](C(=O)N[C@@H](CCCNC(=N)N)C(=O)N1CCC[C@H]1C(=O)N[C@H](C(=O)N[C@@H](C)C(=O)N[C@@H](CC(N)=O)C(=O)N[C@@H](C)C(=O)N[C@@H](CCCNC(=N)N)C(=O)N[C@@H](CC(C)C)C(=O)N[C@@H](CCCNC(=N)N)C(=O)N[C@@H](CC(C)C)C(=O)N[C@@H](CCCNC(=N)N)C(=O)N[C@H](C(N)=O)C(C)C)C(C)C)C(C)C` [Compound 85] (Palmitoyl-VRPVANARLRLRV-NH2), with > 10000 nM; and `CCCCCCCCCCCCCCCC(=O)N[C@H](C(=O)N[C@@H](CCCNC(=N)N)C(=O)N1CCC[C@H]1C(=O)N[C@H](C(=O)N[C@@H](C)C(=O)N[C@@H](CC(N)=O)C(=O)N[C@@H](C)C(=O)N[C@@H](CCCNC(=N)N)C(=O)N[C@@H](CC(C)C)C(=O)N[C@@H](CCCNC(=N)N)C(=O)N[C@@H](CC(C)C)C(=O)N[C@@H](CCCNC(=N)N)C(=O)N[C@H](C(=O)N[C@@H](CO)C(N)=O)C(C)C)C(C)C)C(C)C` [Compound 86] (Palmitoyl-VRPVANARLRLRVS-NH2), with > 10000 nM.

In general, EC50 refers to the concentration at which the effect is half-maximal.
